Data set [1] relates to tumor. Nature of the data set: Tumor uptake measured in mouse tumor models after imaging. The class given is in vivo. The settings on record: about 500 μCi intravenously. As for the experimental part:
Imaging studies using several mouse tumor models, including c-neu ONCO mice, nu/nu mice with OVCAR tumor, and nu/nu mice with HT1080 tumor, were conducted using contrast agents described herein. After administering anesthesia to the mouse, about 500 μCi of Agent 2 (from Table 1) were injected intravenously and the tumor was imaged in a microPET scanner. After imaging acquisition, images were reconstructed into tomographic views. […] In addition, tumor uptake of Agent 2 was measured in the mouse models after imaging. The uptake was detectable in a range from 1-4% injected dose per gram tissue.

Data set [2] is described as follows: microPET brain imaging in normal NHP (Example 13). As to conditions: 30 minutes post injection of 5.1 mCi. The class given is in vivo, nonhuman primates (NHP). As for the experimental part: (§1) Imaging was performed with a microPET camera (Focus220, MICROPET) in anesthetized rats, rabbits and nonhuman primates (NHP) following the intravenous administration of 1, 2 and 3 mCi of ^18F labeled 2-tert-butyl-4-chloro-5-[4-(2-fluoro-ethoxymethyl)-benzyloy]-2H-pyridazin-3-one, also referred to herein as Agent 2. After count acquisition, images were constructed and manually re-orientated as a series of tomographic views. […] These images were acquired 30 minutes post injection (mpi) of 5.1 mCi of 2-tert-butyl-4-chloro-5-[4-(2-[^18F]fluoro-ethoxymethyl)-benzyloy]-2H-pyridazin-3-one and were decay corrected.

Data set [3] is described as follows: microPET imaging of rat brain after intravenous injection. The class given is in vivo. As to conditions: about 1 mCi intravenously. The procedure:
After anesthesia, about 1 mCi of Agent 2 or Agent 3 was injected into a rat intravenously and the rat brain was imaged in a microPET scanner. Following the image acquisition, the images were reconstructed into tomographic views.

Data set [4] in a line: Intravenous injection during microPET imaging in normal animals: heart rate, ECG, adverse effects. The class given is in vivo, rats, rabbits and nonhuman primates. As to conditions: anesthetized animals. The procedure: as §1
Data set [5] in a line: microPET imaging of NHP brain after intravenous injection. The class given is in vivo, nonhuman primates (NHP). As for the experimental part:
Similarly, in nonhuman primates (NHP), about 3 mCi of Agent 1 or Agent 2 was injected intravenously and the brain of NHP was imaged in a microPET. […] The NHP brain was not visible when imaged with Agent 1.

For `CC(C)(C)n1ncc(OCc2ccc(COCC[18F])cc2)c(Cl)c1=O` [Agent 2, 2-tert-Butyl-4-chloro-5-[4-(2-(^18F)fluoroethoxymethyl)-benzyloxy]-2H-pyridazin-3-one], the tumor uptake in data set [1] is 1-4 % injected dose per gram tissue. For the same molecule, the “transport into the brain (uptake and resolution of the images)” value in data set [2] is “efficiently transported into the brain”. Further, in data set [3], the “passing the blood brain barrier and accumulating in the brain” value is “capable of passing the blood brain barrier and accumulating in the brain”. Moreover, in data set [4], the “changes in heart rate and ECG waveforms” value was “did not induce changes in heart rate and ECG waveforms”; the “survival and adverse effects during image acquisition period” value was “all animals survived the image acquisition period with no adverse effects”. Besides, in data set [5] (NHP, about 3 mCi intravenously), the “passing through blood brain barrier and accumulating in the brain” value was “capable of passing through blood brain barrier and accumulating in the brain”; the “visibility of NHP brain in microPET images” value is on record as “visible”.
Consider `CC(C)(C)n1ncc(OCc2ccc(CCCC[18F])cc2)c(Cl)c1=O` [Agent 1, 2-tert-butyl-4-chloro-5-[4-(4-[^18F]fluoro-butyl)-benzyloxy]-2H-pyridazin-3-one], for which the “visibility of NHP brain in microPET images” value in data set [5] (NHP, about 3 mCi intravenously) was “not visible”. Moreover, in data set [5] (SAR study of Example 14), the “penetration into the brain, relative to Agent 2” value is reported as “decreased penetration into the brain”.
As to `CC(C)(C)n1ncc(OCc2ccc(OCCC[18F])cc2)c(Cl)c1=O` [Agent 3, 2-tert-Butyl-4-chloro-5-[4-(3-(^18F)fluoropropoxy)-benzyloxy]-2H-pyridazin-3-one], the “passing the blood brain barrier and accumulating in the brain” value in data set [3] is “unlike Agent 3, Agent 2 is capable of passing the blood brain barrier”.

The values above are taken from patent US10245332B2, “Contrast agents for applications including perfusion imaging” (Lantheus Medical Imaging, Inc., priority 2008, dated 2019).
